Experimental data reported in US20240122880A1, “COMPOSITIONS FOR TREATING HYPERCHOLESTEROLEMIA AND PREPARATION METHODS THEREOF” (UNIVERSITY OF SAN AGUSTIN, priority 2020, published 2024).

How the values were obtained:
[1] = test system: lipase; experiment: Lipase inhibition assay (glycerol generated from cleavage of triglycerides, Sigma MAK046 kit); assay type: biochemical; conditions: relative to untreated lipase enzyme
Description: The lipase inhibition activities of the pineapple flesh, core, and stem crude extracts were determined by measuring the glycerol generated from the cleavage of triglycerides. The storage and preparation instruction were done according to the stated protocol of MAK, 046, Sigma Aldrich®, St. Louis, MO, USA.
Twenty μL of 750 mg/mL flesh, core, and stem at 100 mg/mL final concentration crude extracts were added to their respective wells.
Two μL of the lipase and Orlistat™ at 100 mg/mL and 10 mg/mL, respectively, were added to wells to serve as negative and positive control. All standards and samples were adjusted to 50 μL by adding Lipase Assay Buffer. A 100-μL reaction mix consisting of 93 μL Lipase Assay Buffer, 2 μL peroxidase substrate, 2 μL enzyme mix and 3 μL of lipase substrate was added to each well.
Absorbance was read at 570 nm every five minutes using CLARIOStar™ microplate reader at 37° C. incubation at slow kinetics mode for two hours. The percent lipase inhibition was calculated relative to the untreated lipase enzyme.

[2] = target: T1, HMG-CoA reductase (Homo sapiens, UniProt P04035); experiment: HMG-CoA reductase inhibition assay (NADPH oxidation at 340 nm, Sigma CS1090 kit); assay type: biochemical; conditions: sample concentration 2.1 μg/mL
T1 construct: by the catalytic subunit of 3-hydroxy-3-methylglutaryl CoA reductase; purchased Sigma Aldrich CS1090
T1 sequence (P04035 340-888 limits assumed): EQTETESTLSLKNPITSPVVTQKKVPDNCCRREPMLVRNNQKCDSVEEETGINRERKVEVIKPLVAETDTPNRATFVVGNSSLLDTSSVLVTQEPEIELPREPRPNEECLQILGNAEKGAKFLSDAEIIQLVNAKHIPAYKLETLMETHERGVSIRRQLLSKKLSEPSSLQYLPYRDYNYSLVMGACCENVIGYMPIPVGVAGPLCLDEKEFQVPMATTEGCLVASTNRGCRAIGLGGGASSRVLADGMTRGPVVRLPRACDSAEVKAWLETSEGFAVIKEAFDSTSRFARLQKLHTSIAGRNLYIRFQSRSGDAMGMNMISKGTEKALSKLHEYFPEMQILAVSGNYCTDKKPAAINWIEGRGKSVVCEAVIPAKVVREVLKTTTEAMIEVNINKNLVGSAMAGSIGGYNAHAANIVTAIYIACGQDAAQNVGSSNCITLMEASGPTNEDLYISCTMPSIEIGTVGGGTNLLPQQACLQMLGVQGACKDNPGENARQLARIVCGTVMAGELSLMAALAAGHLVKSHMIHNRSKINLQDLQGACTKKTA
Description: The assay was based on the spectrophotometric measurement of the decrease in absorbance at 340 nm, which represents the oxidation of Nicotinamide Adenine Dinucleotide Phosphate (NADPH) by the catalytic subunit of 3-hydroxy-3-methylglutaryl CoA reductase in the presence of substrate HMG-CoA. All storage and reagent preparations were performed according to the protocol (CS1090, Sigma Aldrich®, St. Louis, MO, USA).
Assay buffer (1×) in the HMG-CoA assay kit was added to all samples. 184 μL for the blank, 182 μL for the activity control, 181 μL for the inhibition control and samples according to the manufacturer's instructions in the Sigma-Aldrich® CS1090 assay kit.
Pravastatin™ (2.1 μg/mL) positive control, 20 μL of […], core (100 mg/mL final concentration) and 20 μL of 50 mg/mL stem (5 mg/mL final concentration) crude extracts were added to its assay buffers. Lower reaction concentration of extracts (20 μL of 250 mg/mL to obtain 25 mg/mL final concentration of flesh and core crude extracts) was also tested against HMG-CoA reductase enzyme.
Four μL of NADPH and 12 μL HMG-CoA substrate were also added to the treatments. The HMG-CoA reductase enzyme (2 μL) was kept on ice until added to the activity, inhibition controls, and samples.
The absorbance at 340 nm was monitored for every 20 seconds for up to 10 minutes using CLARIOStar™ plate reader. […]

HMG-COA reductase inhibition activity [2] [%]	Compound	Lipase inhibition activity ([1]; sample concentration 10 mg/mL) [%]	Lipase inhibition activity ([1]; sample concentration 100 mg/mL) [%]
–	CCCCCCCCCCC[C@@H](C[C@@H]1OC(=O)[C@H]1CCCCCC)OC(=O)[C@H](CC(C)C)NC=O [Orlistat ™, Orlistat]	100±0.05	100 ± 0.05
82	CC[C@H](C)C(=O)O[C@H]1C[C@H](O)C=C2C=C[C@H](C)[C@H](CC[C@@H](O)C[C@@H](O)CC(=O)O)[C@H]21 [Pravstatin ™, Pravastatin]	–	–
